assay: gradient 5% acetonitrile 3 min, to 50% in 2 min, to 85% in 15 min, held 3 min, 100 µL/min; details: column: Zorbax Extend-C18 2.1 x 50 mm; eluents: water / acetonitrile, 0.1% formic acid
Summary of the method: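 Using water and acetonitrile that each contained 0.1% formic acid, mixtures of ~100 pure standards were separated at 100 μL/min on a Zorbax Extend-C18 column (2.1 × 50 mm, 1.8 μm). The HPLC fed a quadrupole time-of-flight mass spectrometer working in positive and negative ionization mode, with dead and dwell volumes of 40 μL and 900 μL. Data were acquired over 3 months. Retention time was read from computationally picked adduct peaks after manual inspection of each.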

Compound | RP-LC retention time
Cc1ccc(C(=O)N(CCCN)[C@@H](c2nc3cc(Cl)ccc3c(=O)n2Cc2ccccc2)C(C)C)cc1 | 990 s
COC(=O)c1c(NCCc2ccc(Cl)cc2)c2cc(F)ccc2[nH]c1=O | 857 s
CS(=O)(=O)Nc1ccc2nc(S(C)(=O)=O)sc2c1 | 661 s
CC1CCCC(NC(=O)c2cc(=O)[nH]c3ccc(Br)cc23)C1C (stereo not drawn) | 869 s
Cc1ccc(NS(=O)(=O)c2cc3n(c2)CCN(C)C3=O)cc1F | 716 s
CC12COC3(C(=O)Nc4ccc(F)cc4)CC1CCC32C (stereo not drawn) | 1030 s
CC(C)c1noc(-c2cccnc2-n2cnc(C(=O)Nc3ccc(F)cc3)c2)n1 | 890 s
Cc1cc2c(cc1S(=O)(=O)N1CCCC1C(=O)NCc1ccc(F)cc1)OCC(=O)N2 (stereo not drawn) | 712 s
O=c1c2nnn(-c3cccc(F)c3)c2ncn1Cc1cccnc1 | 587 s
Cc1cc(-c2nnc(C3CC3)o2)c(C)n1CC(=O)NCc1ccc(Cl)cc1 | 850 s
Clc1ccc(C(Cn2ccnc2)OCc2c(Cl)cccc2Cl)c(Cl)c1 (stereo not drawn) | 929 s
Cc1cccc(CNC2=NCCNC23CCN(S(=O)(=O)c2ccc4c(c2)CCCC4)CC3)c1 | 854 s
O=c1c2cnc3nc(-c4ccccc4Cl)nn3c2ccn1-c1ncn[nH]1 | 670 s
COC(=O)c1cccc(NC(=O)c2[nH]c3cc(C)sc3c2CN2CCOCC2)c1 | 673 s
C[C@H](CCC(=O)NCCS(=O)(=O)O)[C@H]1CC[C@H]2[C@@H]3CC[C@@H]4C[C@H](O)CC[C@]4(C)[C@H]3C[C@H](O)[C@]12C | 724 s
O=c1ccn(-c2cccc(F)c2)nc1-c1nc(-c2ccc3c(c2)OCO3)no1 | 846 s
CNC(=O)c1sc2nc(-c3ccc(C)cc3)c(NCCOC)n2c1C | 712 s
CCOC(=O)c1c(C)c(C(=O)CN(CC2CCCO2)C(=O)c2ccc(F)cc2)c(C)n1CC (stereo not drawn) | 973 s
CCCCN1CCN(C(=O)C2CCN(c3nnc(-c4ccc(C)cc4)o3)CC2)CC1 | 632 s
Cc1cc(C(=O)Nc2ccc(-c3nc(Cn4cccn4)c(C)o3)cc2)no1 | 823 s
Cc1cc(N2CCCC2)nc(N2CCN(C(=O)CCC3CCCCC3)CC2)n1 | 825 s
CCc1ccc(S(=O)(=O)NCCc2cn(CC(C)C)c3ncccc23)cc1 | 946 s

Compound | RP-LC retention time
Cn1c(=O)c2cc(C(=O)NCc3ccc(Cl)cc3)sc2n(C)c1=O | 800 s
CCOc1nccnc1N1CCC(NS(=O)(=O)C2CC2)C1 (stereo not drawn) | 1230 s
O=C(c1ccoc1)N1CCCC(c2nnc3n2CCN(C(=O)C2CC2)C3)C1 (stereo not drawn) | 591 s
CCc1nnc([C@@H]2CC(F)(F)CN2C(=O)c2coc(C)n2)o1 | 678 s
Cc1ccccc1CNC(=O)Cn1c(C)nc2onc(C)c2c1=O | 752 s
Cc1nc(-c2ccncc2)nc2c1CCC(=O)N2CCC1=CCCCC1 | 912 s
CNC(=O)[C@@H]1CN(C(=O)CCc2cc(OC)no2)C[C@H]1c1nc(C)no1 | 620 s
O=C(C1CCCC1)N1CCCC(c2nn[nH]n2)C1 (stereo not drawn) | 636 s
Cc1noc(C2CN(C(=O)Nc3cc(F)ccc3F)CC23CCOCC3)n1 (stereo not drawn) | 733 s
COc1ccc2[nH]c3c(c2c1)CCNC3 | 365 s
CCNC(=O)c1nc(C(=O)NCCC(C)C)cs1 | 771 s
CN(C)c1cc(N2CCCC(NC(=O)Cc3ccsc3)C2)ncn1 (stereo not drawn) | 870 s
COc1cccc(CCC(=O)NC2(c3nc(C)no3)CCCCC2)c1 | 856 s
Cc1cc(C)nc(Nc2nc(C(=O)N3CCN(C(=O)c4ccco4)CC3)cs2)n1 | 665 s
Cc1ccc(NC(=O)N2[C@H]3CC[C@@H]2c2cncnc2C3)cc1F | 738 s
O=C(Nc1ccc2c(c1)OCO2)C1CCN(c2cc(N3CCCC3)ncn2)CC1 | 642 s
CCn1nc(CNC(=O)c2cncc(Br)c2)c2ccccc21 | 820 s
Cc1oc2ncnc(N3CCCC(C(=O)Nc4cccc(Cl)c4)C3)c2c1C (stereo not drawn) | 1050 s
CC(=O)Nc1ccc(CC(=O)O)cc1 | 620 s
Cn1cc(S(=O)(=O)N2CCC(C(=O)N3CCCCC3)CC2)cc1C(=O)N1CCCC1 | 688 s
CCC(=O)Nc1c(C)noc1/C=C/c1ccc(S(=O)(=O)Nc2ccc(S(N)(=O)=O)cc2)s1 | 719 s
CCCn1cc(CCNC(=O)c2cc(F)cc(F)c2)c2cccnc21 | 820 s

The remaining lines, values ahead:

RP-LC retention time | Compound
986 s | O=C([C@@H]1C[C@H](F)CN1S(=O)(=O)Cc1ccccc1Cl)N1CCc2ccccc2C1
975 s | Cc1ccc(NC(=O)Cn2nc3c(N4CCN(c5ccccc5)CC4)nccn3c2=O)cc1C
1050 s | Cc1ccc(NC(=O)Cn2nc3c(Oc4ccc(C(C)C)cc4)nccn3c2=O)c(C)c1
1080 s | Cc1cccc(CNC(=O)CN2C(=O)C3CCCCN3c3ccc(S(=O)(=O)N4CCCC4)cc32)c1 (stereo not drawn)
664 s | CC1CCCCN1CCNC(=O)c1ccc2ccnc(N3CCN(c4ccc(Cl)cc4)CC3)c2c1 (stereo not drawn)
811 s | CCCCOc1ccc(NC(=O)c2cc(=O)c3cc(Br)ccc3o2)c2cccnc12
649 s | Cc1cc(=O)n(CC(=O)Nc2ccccc2F)c(N2CCCCC2)n1
718 s | O=C(NCc1ccc(C(F)(F)F)cc1)C1CCN(c2nnc3ccc(Cl)cn23)CC1
735 s | Cn1nc(CNC(=O)c2ccsc2)c2ccccc21
987 s | CC1=NS(=O)(=O)N(C)C=C1C(=O)OCc1nc(Cc2ccccc2C)no1
792 s | COC(=O)CNC(=O)NC(C(=O)N1CCc2ccccc21)c1ccccc1 (stereo not drawn)
664 s | Cc1ccc(C2(O)C(=O)N(CC(=O)Nc3ccccc3F)c3ccccc32)cc1 (stereo not drawn)
984 s | CCn1c(=O)c(N2CCC(C(=O)NCCc3c[nH]c4ccc(C)cc34)CC2)nc2cccnc21
1000 s | Cc1ccc2c(c1)N(Cc1ccccc1F)N=C(C(=O)N1CCCCC1)S2(=O)=O
941 s | COc1ccc(NC(=O)N2CCCC2c2nc(-c3ccccc3OC)no2)cc1OC (stereo not drawn)
684 s | CCOc1ccc(-n2c(CN3CCN(C(=O)NCCC(C)C)CC3)nc3cccnc32)cc1
742 s | O=C(NCCc1ccccc1)N1CCC(c2noc(-c3ccccn3)n2)C1 (stereo not drawn)
715 s | O=C(CSc1nnc(NC(=O)Cc2cccc3ccccc23)s1)NCC1CCCO1 (stereo not drawn)
596 s | O=C1Nc2ccccc2SC1C(=O)N1CCC(C(=O)N2CCN(c3ccccn3)CC2)CC1 (stereo not drawn)
844 s | CC(Oc1ccccc1)C(=O)N1CCCn2nc(-c3cccs3)cc2C1 (stereo not drawn)
1060 s | CCc1cccc(NC(=O)N2c3ccccc3CC2c2nc(CCOC)no2)c1 (stereo not drawn)
1300 s | COC(=O)c1ccc2c(=O)n(CCc3ccccc3)c(N3CCCCCC3)nc2c1

RP-LC retention time | Compound
1150 s | CCCC(=O)NCCc1c2n(c3ccc(OC)cc13)CCCc1ccccc1-2
649 s | CCS(=O)(=O)Nc1ccc(Nc2c3ccccc3nc3ccccc23)c(OC)c1
745 s | CCOc1ccc(N(CC)C(=O)c2nc(N(C)C)c3cnn(C)c3n2)cc1
669 s | CCc1ccc(NC(=O)Cn2nc3n(c2=O)CCCC3)cc1
659 s | CC(=O)Nc1nsc(N2CCC(C(=O)N3CCN(c4ccccc4)CC3)CC2)n1
822 s | CCOc1cc(C(=O)NC2CCN(c3cc(-c4ccccc4)[nH]n3)C2)cc(OCC)c1OCC (stereo not drawn)
696 s | CCCNc1cc(N2CCCC(CCC(=O)NCc3cccc(F)c3)C2)ncn1 (stereo not drawn)
763 s | Cc1ccc(CNC(=O)c2ccc(CN3CCN(C(C)C)C(=O)C3=O)cc2)cc1C
764 s | Cc1ccccc1CCNC(=O)c1cc2n(n1)CC(C)(C(=O)NCc1ccccc1)N(C)C2=O (stereo not drawn)
764 s | CCCC(=O)N1CCC2(CC1)C(=O)N(C)c1ccccc12
1130 s | Cc1cccc(-n2cc(C(=O)OCC(=O)OC(C)C)c3ccccc3c2=O)c1
950 s | Cc1ccc(NC(=O)Cn2nc(C(=O)N3CCCC3)c3ccccc32)cc1Cl
1150 s | Cc1cccc(N2CCN(c3ccc4cc(S(=O)(=O)N5CCCC5)ccc4n3)CC2)c1C
837 s | O=C(CN1C(=O)NC(c2ccccc2Cl)C2=C1COC2=O)Nc1ccc(F)c(Cl)c1 (stereo not drawn)
987 s | Cc1ccc(NC(=O)CN2C(=O)C3CCCCN3c3ccc(S(=O)(=O)N4CCCCC4)cc32)cc1 (stereo not drawn)
787 s | COc1ccc(CC(=O)N2CCC3(CC2)NC(=O)c2ccc(Cl)cc2N3)cc1
843 s | CCCn1nc(CNC(=O)c2ccc3c(c2)OCO3)c2ccccc21
791 s | Cc1csc(-c2ccc(N3CCN(C(=O)c4ccc5c(c4)OCO5)CC3)nc2)n1
708 s | Cc1cc(=O)n(CC(=O)Nc2ccc(Cl)cc2)c(N2CCCCC2)n1
828 s | CCOc1ccc(N2C=C(C(=O)N3CCCC3)S(=O)(=O)c3ccccc32)cc1
864 s | O=C(C1CCN(c2nc3ccc(-c4ccc(F)cc4)nc3s2)CC1)N1CCOCC1
1260 s | CCc1cccc(NC(=O)c2cc3sccc3n2Cc2ccc(F)cc2)c1
